According to PMC6256987, “Investigating the Activity Spectrum for Ring-Substituted 8-Hydroxyquinolines” (Molecules, 2010):
≈ marks a conversion by molar mass, not a printed value. Where “and” joins values, the source holds several entries; their conditions need not be identical. Equal entries are not always repeated. Where two headings read alike, the source gives them in different places.

Legend:
[1] = tested on: M. smegmatis MC2155; assay: In vitro antimycobacterial evaluation (alamarBlue, 96 well plate); format: cell-based; conditions: Mycolicibacterium smegmatis, Middlebrook broth, 37 °C overnight, read-out: MIC/IC90 M. smegmatis
[2] = tested on: Candida krusei ATCC 6258; assay: In vitro antifungal broth microdilution test; format: cell-based; conditions: Pichia kudriavzevii, ATCC6258, 35 °C, RPMI 1640 pH 7.0, CLSI M27-A2 (IC80 value)
[3] = tested on: Trichophyton mentagrophytes 445; assay: In vitro antifungal broth microdilution test; format: cell-based
[4] = tested on: photosynthetic electron transport (PET) in spinach chloroplasts; assay: Inhibition of photosynthetic electron transport (PET) in spinach chloroplasts, DCPIP photoreduction; format: biochemical, Spinacia oleracea L.; conditions: DCPIP as electron acceptor, phosphate buffer pH 7.2, read-out: PET reduction IC50
Description: Chloroplasts were prepared from spinach (Spinacia oleracea L.) according to Masarovicova and Kralova. The inhibition of photosynthetic electron transport (PET) in spinach chloroplasts was determined spectrophotometrically (Genesys 6, Thermo Scientific, USA) using an artificial electron acceptor 2,6-dichlorophenol-indophenol (DCIPP) according to Kralova et al. and the rate of photosynthetic electron transport was monitored as a photoreduction of DCPIP. The measurements were carried out in phosphate buffer (0.02 mol/L, pH 7.2) containing sucrose (0.4 mol/L), MgCl2 (0.005 mol/L) and NaCl (0.015 mol/L). The chlorophyll content was 30 mg/L in these experiments and the samples were irradiated (~100 W/m^2) from 10 cm distance with a halogen lamp (250 W) using a 4 cm water filter to prevent warming of the samples (suspension temperature 22 °C). The studied compounds were dissolved in DMSO due to their limited water solubility. […] The inhibitory efficiency of the studied compounds was expressed by IC50 values, i.e., by molar concentration of the compounds causing 50% decrease in the oxygen evolution rate relative to the untreated control.

[5] = tested on: Mycobacterium avium complex CIT19/06; assay: In vitro antimycobacterial evaluation (alamarBlue, 96 well plate); format: cell-based; conditions: 120 h, Middlebrook broth, 37 °C 5 days, read-out: MIC/IC90 M. avium complex
[6] = tested on: Candida albicans ATCC 44859; assay: In vitro antifungal broth microdilution test; format: cell-based; conditions: Candida albicans, ATCC44859, 35 °C, RPMI 1640 pH 7.0, CLSI M27-A2 (IC80 value)
[7] = tested on: Candida tropicalis 156; assay: In vitro antifungal broth microdilution test; format: cell-based; conditions: Candida tropicalis, 156, 35 °C, RPMI 1640 pH 7.0, CLSI M27-A2 (IC80 value)
[8] = tested on: Trichosporon beigelii 1188; assay: In vitro antifungal broth microdilution test; format: cell-based; conditions: Trichosporon beigelii, 1188, 35 °C, RPMI 1640 pH 7.0, CLSI M27-A2 (IC80 value), read-out: MIC TB
Description: Fluconazole (FLU) was used as the standard of a clinically used antimycotic drug. The procedure was performed with twofold dilution of the compounds in RPMI 1640 (Sevapharma a.s., Prague, Czech Republic) buffered to pH 7.0 with 0.165 mol of 3-morpholino-propane-1-sulfonic acid (MOPS, Sigma, Germany). The final concentrations of the compounds ranged from 500 to 0.975 μmol/L. Drug–free controls were included. The MIC determination was performed according to the CLSI (formerly NCCLS) reference protocol M27-A2 for yeasts (IC80 value) and M38-A for moulds (IC50 value). […] The values of MICs were determined after 24 and 48 h of static incubation at 35 °C. For T. mentagrophytes, the final MICs were determined after 72 and 120 h of incubation.

[9] = tested on: M. absessus CIT21/06; assay: In vitro antimycobacterial evaluation (alamarBlue, 96 well plate); format: cell-based; conditions: Middlebrook broth, 37 °C overnight, read-out: MIC/IC90 M. absessus
[10] = Lipophilicity determination by RP-HPLC (capacity factor k / log k); format: physicochemical; conditions: C18 column, isocratic MeOH 55.0% / H2O 45.0%
Excerpt: A Waters Alliance 2695 XE HPLC separation module and Waters Photodiode Array Detector 2996 (Waters Corp., Milford, MA, USA) were used. A Symmetry® C18 5 μm, 4.6 × 250 mm, Part No. WAT054275, (Waters Corp., Milford, MA, USA) chromatographic column was used. The HPLC separation process was monitored by Millennium32® Chromatography Manager Software, Waters 2004 (Waters Corp., Milford, MA, USA). A mixture of MeOH p.a. (55.0%) and H2O-HPLC– Mili-Q Grade (45.0%) was used as a mobile phase. The total flow of the column was 0.9 mL/min, injection 30 μL, column temperature 30 °C and sample temperature 10 °C. The detection wavelength 210 nm was chosen. The KI methanolic solution was used for the dead time (tD) determination. Retention times (tR) were measured in minutes.
The capacity factors k were calculated using the Millennium32® Chromatography Manager Software according to formula k = (tR - tD)/tD, where tR is the retention time of the solute, whereas tD denotes the dead time obtained via an unretained analyte. Log k, calculated from the capacity factor k, is used as the lipophilicity index converted to log P scale.

[11] = tested on: Aspergillus fumigatus 231; assay: In vitro antifungal broth microdilution test; format: cell-based; conditions: Aspergillus fumigatus, 231, 35 °C, RPMI 1640 pH 7.0, CLSI M38-A (IC50 value)
[12] = tested on: Absidia corymbifera 272; assay: In vitro antifungal broth microdilution test; format: cell-based; conditions: Lichtheimia corymbifera, 272, 35 °C, RPMI 1640 pH 7.0, CLSI M38-A (IC50 value)
[13] = tested on: Candida glabrata 20/I; assay: In vitro antifungal broth microdilution test; format: cell-based; conditions: Nakaseomyces glabratus, 20/I, 35 °C, RPMI 1640 pH 7.0, CLSI M27-A2 (IC80 value)
[14] = tested on: M. kansasii CIT11/06; assay: In vitro antimycobacterial evaluation (alamarBlue, 96 well plate); format: cell-based; conditions: Mycobacterium kansasii, CIT11/06, 120 h, Middlebrook broth, 37 °C 5 days, read-out: MIC/IC90 M. kansasii
[15] = tested on: photosynthetic electron transport (PET) in spinach chloroplasts; parameters: method as in earlier work; conditions: standard, read-out: PET reduction IC50; cited from earlier work
[16] = Trichophyton mentagrophytes, 445, 120 h, pH 7
[17] = Trichophyton mentagrophytes, 445, 72h, RPMI 1640 pH 7.0, CLSI M38-A (IC50 value)

Oc1ccc(C=Cc2ccc3c(Cl)cc(Cl)c(O)c3n2)cc1 [Compound 10, 5,7-Dichloro-2-[2-(4-hydroxyphenyl)vinyl]quinolin-8-ol]
MIC [1]: 150 µg/mL (≈ 452 µM)
MIC ([2]; 24h): 125 µM (≈ 41.5 µg/mL)
MIC ([2]; 48h): > 125 µM
MIC [3, 16]: 62.5 µM (≈ 20.8 µg/mL)
MIC [3, 17]: 15.6 µM (≈ 5.19 µg/mL)
IC50 [4]: 660 µM
MIC [5]: > 300 µg/mL
MIC ([6]; 24h): 125 µM (≈ 41.5 µg/mL)
MIC ([6]; 48h): > 125 µM
MIC ([7]; 24h): 125 µM (≈ 41.5 µg/mL)
MIC ([7]; 48h): > 125 µM
MIC ([8]; 24h): 125 µM (≈ 41.5 µg/mL)
MIC ([8]; 48h): > 125 µM
MIC [9]: > 300 µg/mL
log k [10]: 1.5866
MIC ([11]; 24h): 125 µM (≈ 41.5 µg/mL)
MIC ([11]; 48h): 125 µM (≈ 41.5 µg/mL)
MIC ([12]; 24h): 31.2 µM (≈ 10.4 µg/mL)
MIC ([12]; 48h): 62.5 µM (≈ 20.8 µg/mL)
MIC ([13]; 24h): 125 µM (≈ 41.5 µg/mL)
MIC ([13]; 48h): > 125 µM
MIC [14]: > 300 µg/mL

Oc1ccc(C=Cc2ccc3c(Cl)cc(Cl)c(O)c3n2)c(O)c1 [Compound 11, 5,7-Dichloro-2-[2-(2,4-dihydroxyphenyl)vinyl]quinolin-8-ol]
MIC [1]: 100 µg/mL (≈ 287 µM)
MIC [5]: > 100 µg/mL
MIC [9]: > 100 µg/mL
log k [10]: 1.5858
MIC [14]: > 100 µg/mL

Oc1cc(O)cc(C=Cc2ccc3c(Cl)cc(Cl)c(O)c3n2)c1 [Compound 12, 5,7-Dichloro-2-[2-(3,5-dihydroxyphenyl)vinyl]quinolin-8-ol]
MIC [1]: > 100 µg/mL
MIC ([2]; 24h): > 125 µM
MIC ([2]; 48h): > 125 µM
MIC [3, 16]: 15.6 µM (≈ 5.44 µg/mL)
MIC [3, 17]: 15.6 µM (≈ 5.44 µg/mL)
IC50 [4]: 341 µM
MIC [5]: > 300 µg/mL
MIC ([6]; 24h): > 125 µM
MIC ([6]; 48h): > 125 µM
MIC ([7]; 24h): > 125 µM
MIC ([7]; 48h): > 125 µM
MIC ([8]; 24h): > 125 µM
MIC ([8]; 48h): > 125 µM
MIC [9]: > 300 µg/mL
log k [10]: 1.5867
MIC ([11]; 24h): 125 µM (≈ 43.5 µg/mL)
MIC ([11]; 48h): 125 µM (≈ 43.5 µg/mL)
MIC ([12]; 24h): 62.5 µM (≈ 21.8 µg/mL)
MIC ([12]; 48h): 62.5 µM (≈ 21.8 µg/mL)
MIC ([13]; 24h): > 125 µM
MIC ([13]; 48h): > 125 µM
MIC [14]: > 300 µg/mL

CC(=O)Oc1ccc(O)c(C=Cc2ccc3c(Cl)cc(Cl)c(O)c3n2)c1 [Compound 13, 5,7-Dichloro-2-[2-(2-hydroxy-5-acetoxyphenyl)vinyl]quinolin-8-ol]
MIC [1]: 100 µg/mL (≈ 256 µM)
MIC [5]: > 300 µg/mL
MIC [9]: > 300 µg/mL
log k [10]: 1.5864
MIC [14]: > 300 µg/mL

Oc1c(Cl)cc(Cl)c2ccc(C=Cc3ccc(C=Cc4ccc5c(Cl)cc(Cl)c(O)c5n4)cc3)nc12 [Compound 14, 5,7-Dichloro-2-(2-{4-[2-(5,7-dichloro-8-hydroxyquinolin-2-yl)vinyl]phenyl}vinyl)quinolin-8-ol]
MIC [1]: 40 µg/mL (≈ 72.2 µM)
MIC ([2]; 24h): 0.98 µM (≈ 0.543 µg/mL)
MIC ([2]; 48h): 1.95 µM (≈ 1.08 µg/mL)
MIC [3, 16]: 7.81 µM (≈ 4.33 µg/mL)
MIC [3, 17]: 3.9 µM (≈ 2.16 µg/mL)
IC50 [4]: 334 µM
MIC [5]: > 300 µg/mL
MIC ([6]; 24h): 0.98 µM (≈ 0.543 µg/mL)
MIC ([6]; 48h): 3.9 µM (≈ 2.16 µg/mL)
MIC ([7]; 24h): 1.95 µM (≈ 1.08 µg/mL)
MIC ([7]; 48h): 7.81 µM (≈ 4.33 µg/mL)
MIC ([8]; 24h): 3.9 µM (≈ 2.16 µg/mL)
MIC ([8]; 48h): 15.6 µM (≈ 8.66 µg/mL)
MIC [9]: 130 µg/mL (≈ 235 µM)
log k [10]: 2.5760
MIC ([11]; 24h): 3.9 µM (≈ 2.16 µg/mL)
MIC ([11]; 48h): 15.6 µM (≈ 8.66 µg/mL)
MIC ([12]; 24h): 15.6 µM (≈ 8.66 µg/mL)
MIC ([12]; 48h): 31.2 µM (≈ 17.3 µg/mL)
MIC ([13]; 24h): 0.49 µM (≈ 0.272 µg/mL)
MIC ([13]; 48h): 1.95 µM (≈ 1.08 µg/mL)
MIC [14]: 40 µg/mL (≈ 72.2 µM)

CN(C)C(=O)Nc1ccc(Cl)c(Cl)c1 [DCMU, 3-(3,4-dichlorophenyl)-1,1-dimethylurea]
IC50 [15]: ~1.9 µM and 1.9 µM

NNC(=O)c1ccncc1 [INH, isoniazid, reference compound]
MIC [1]: 39 µg/mL (≈ 284 µM)
MIC [5]: < 10 µg/mL
MIC [9]: > 100 µg/mL
MIC [14]: < 10 µg/mL

NC(=O)c1cnccn1 [PZA, pyrazinamide, reference compound]
MIC [1]: > 100 µg/mL
MIC [5]: > 100 µg/mL
MIC [9]: > 100 µg/mL
MIC [14]: > 100 µg/mL
